Data as given in ChEMBL document CHEMBL2424648, “Carbonic anhydrase inhibitors: synthesis and inhibition of the human carbonic anhydrase isoforms I, II, VII, IX and XII with benzene sulfonamides incorporating 4,5,6,7-tetrabromophthalimide moiety” (Bioorg Med Chem, 2013).

Experiments:
Carbonic anhydrase 9 = Carbonic anhydrase 9 (Homo sapiens, UniProt Q16790)
Carbonic anhydrase 2 = Carbonic anhydrase 2 (Homo sapiens, UniProt P00918)
Carbonic anhydrase 1 = Carbonic anhydrase 1 (Homo sapiens, UniProt P00915)
Carbonic anhydrase 12 = Carbonic anhydrase 12 (Homo sapiens, UniProt O43570)
Sequence of Carbonic anhydrase 12 (O43570 whole entry): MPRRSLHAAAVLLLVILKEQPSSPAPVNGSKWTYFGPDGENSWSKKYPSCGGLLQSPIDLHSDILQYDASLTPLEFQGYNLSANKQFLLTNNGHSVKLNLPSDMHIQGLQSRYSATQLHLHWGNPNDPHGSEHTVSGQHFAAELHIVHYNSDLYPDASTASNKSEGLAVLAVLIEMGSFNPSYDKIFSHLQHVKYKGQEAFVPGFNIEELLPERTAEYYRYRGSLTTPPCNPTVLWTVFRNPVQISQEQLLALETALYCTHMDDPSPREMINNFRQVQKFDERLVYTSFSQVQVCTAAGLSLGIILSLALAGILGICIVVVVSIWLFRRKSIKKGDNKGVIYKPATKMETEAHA

Sequence of Carbonic anhydrase 1 (P00915 whole entry): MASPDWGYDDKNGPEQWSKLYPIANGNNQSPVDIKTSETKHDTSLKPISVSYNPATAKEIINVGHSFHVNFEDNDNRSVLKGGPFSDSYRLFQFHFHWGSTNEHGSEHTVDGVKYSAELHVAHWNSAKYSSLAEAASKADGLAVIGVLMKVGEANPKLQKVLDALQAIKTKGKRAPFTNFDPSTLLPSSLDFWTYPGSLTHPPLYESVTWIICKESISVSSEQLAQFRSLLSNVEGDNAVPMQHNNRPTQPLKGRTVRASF

| Compound | Ki (Carbonic anhydrase 9) [nM] | Ki (Carbonic anhydrase 2) [nM] | Ki (Carbonic anhydrase 1) [nM] | Ki (Carbonic anhydrase 12) [nM] |
| --- | --- | --- | --- | --- |
| NS(=O)(=O)c1ccc(N2C(=O)c3c(Br)c(Br)c(Br)c(Br)c3C2=O)cc1 | 9.1 | 68 | 432 | 6.1 |
| NS(=O)(=O)c1ccc(CN2C(=O)c3c(Br)c(Br)c(Br)c(Br)c3C2=O)cc1 | 12.3 | – | 251 | 12.3 |
| NS(=O)(=O)c1ccc(N2C(=O)c3c(Br)c(Br)c(Br)c(Br)c3C2=O)c(F)c1 | 9.4 | 96 | 770 | 7.5 |
| NS(=O)(=O)c1ccc(CCNC(=S)Nc2ccc(-c3c4ccc(=O)cc-4oc4cc(O)ccc34)c(C(=O)O)c2)cc1 | – | – | – | 5 |
| NS(=O)(=O)c1cccc(N2C(=O)c3c(Br)c(Br)c(Br)c(Br)c3C2=O)c1 | – | – | 340 | 19 |
| NS(=O)(=O)c1ccccc1N1C(=O)c2c(Br)c(Br)c(Br)c(Br)c2C1=O | 234 | 190 | > 10000 | 197 |
| NS(=O)(=O)c1ccc(N2C(=O)c3c(Br)c(Br)c(Br)c(Br)c3C2=O)c(Cl)c1 | 8.5 | 55 | 208 | 5.9 |
| NS(=O)(=O)c1ccc(CCN2C(=O)c3c(Br)c(Br)c(Br)c(Br)c3C2=O)cc1 | 15.9 | – | – | 10.2 |
| NS(=O)(=O)c1ccc(N2C(=O)c3c(Br)c(Br)c(Br)c(Br)c3C2=O)c(Br)c1 | 8.8 | 47 | 143 | 6.5 |
